{"source": "patent US5444085A", "about": "“Methods of inhibiting HIV and inhibiting the activation of HIV” (Warner-Lambert Company, priority 1994, dated 1995)", "molecules": {"B1": {"name": "interferon Y: interferon Y (protein, UniProt P01579 24-161, looked up)", "Interferon gamma": "QDPYVKEAENLKKYFNAGHSDVADNGTLFLGILKNWKEESDRKIMQSQIVSFYFKLFKNFKDDQSIQKSVETIKEDMNVKFFNSNKKKRDDFEKLTNYSVTDLNVQRKAIHELIQVMAELSPAAKTGKRKRSQMLFRG"}}, "key": {"[1]": {"system": "OM-10.1 cells (HIV-1 activation)", "settings": "poster Nov. 3-7 1991; cited from earlier work"}, "[2]": {"system": "HIV-infected cells", "settings": "Hamamoto et al. 1989; cited from earlier work"}, "[3]": {"system": "OM-10.1 cells (HIV-1 activation)", "assay": "Supernatant reverse transcriptase activity / HIV-1 activation in OM-10.1 cultures pretreated with test compound then TNF-α induced (Example 1)", "assay_type": "cell-based", "settings": "for stimulation index (SI) value of the reverse transcriptase activity: TNF-α treated vs non-TNF-α medium culture", "description": "The cellular pathways involved in mediating the activating signal from the plasma membrane to the integrated virus, resulting in HIV-1 expression, are much less clear. Recently, the development of a reliable and simple system for evaluating compounds that could prevent activation of latent HIV was reported at the National […] (NCDDG)/AIDS by P. Feorino, S. T. Butera, T. M. Folks, and R. F. Schinazi, San Diego, Calif., Nov. 3-7, 1991. […] The expression of CD4+ on the cell surface and the activity of reverse transcriptase are used as markers for quantitating viral expression. Alternatively, other HIV markers, such as protease activity, which are known to those of skill in the art can be used. OM-10.1 cells remain CD4^+ until viral activation and respond to tumor necrosis factor induction, and therefore, these cultures are used to conveniently and rapidly examine pharmacologics for an ability to prevent CD4^+ down modulation (decrease in expression of CD4^+ on the cell surface) and HIV-1 expression.\nExample 1 was performed as described by Butera ST, et al., J. Virol. 1991;65:4645-4653. Test compounds were first dissolved in 100% DMSO to the indicated stock concentrations below in Table I. The stock solution was then diluted in tissue culture starting at 1:100(10/-2) and proceeding on as indicated.\nOM-10.1 cells were then pretreated for 4 hours with the test compounds prior to TNF-α induction. TNF-α was added at 20 U/ml and induced cells were examined at 24 hours for evidence of surface CD4 down-modulation, as an indication of viral activation. Cells were also harvested after 24 hours of TNF-α induction for drug toxicity, being labeled with ^3 H thymidine during the final 18 hours in culture. At […], cell-free culture supernatant was collected for reverse transcriptase determination, as a further verification of the extent of HIV-1 activation. CD4 surface staining for flow cytometry and reverse transcriptase analysis were performed as described."}, "[4]": {"system": "OM-10.1 cells", "assay": "Return to latency of TNF-α pre-activated OM-10.1 cells, percent CD4-positive cells by flow cytometry (Example 2)", "assay_type": "cell-based", "protocol": "Moreover, in Example 2 the experiment was extended through 96 hours after the removal of TNF-α."}}, "data": [{"molecule": "Cc1cn([C@H]2C[C@H](F)[C@@H](CO)O2)c(=O)[nH]c1=O", "note": "[3'-fluoro-3'-deoxythymidine (FLT), 3'-fluoro-3'-deoxythymidine]", "values": [{"measurement": "inhibition of the activation of HIV-1", "setting": "[1]", "result": "modest inhibitors of the activation of HIV-1"}]}, {"molecule": "CCCCCCCCCCCCCC(=O)O[C@@H]1[C@@H](C)[C@@]2(O)[C@@H](C=C(CO)C[C@]3(O)C(=O)C(C)=C[C@@H]23)[C@@H]2C(C)(C)[C@]12OC(C)=O", "note": "[12-O-tetradecanoyl-phorbol-13-acetate]", "values": [{"measurement": "CD4 down regulation and viral expression", "setting": "[2]", "result": "mediates CD4 down regulation and viral expression in HIV-infected cells"}]}, {"molecule": "COc1ccc2c(c1)c(OC(C)C)c(C(N)=O)[s+]2[O-]", "note": "(stereo not drawn) [Test Compound B, 5-methoxy-3-(1-methylethoxy)benzothiophene-2-carboxamide-, 1-oxide]", "values": [{"measurement": "inhibition at 0.035 µM", "setting": "[3]; Human immunodeficiency virus 1, dilution 1:10 6 (A 19.5 nM; B 35.0 nM), TNF-α 20 U/ml, read-out: percent inhibition of the reverse transcriptase activity", "result": 0, "unit": "%"}, {"measurement": "inhibition at 17.75 µM", "setting": "[3]; Human immunodeficiency virus 1, dilution 1:2000 (A 10.0 μM; B 17.75 μM), TNF-α 20 U/ml, read-out: percent inhibition of the reverse transcriptase activity", "result": 72.9, "unit": "%"}, {"measurement": "inhibition at 8.88 µM", "setting": "[3]; Human immunodeficiency virus 1, dilution 1:4000 (A 5.0 μM; B 8.88 μM), TNF-α 20 U/ml, read-out: percent inhibition of the reverse transcriptase activity", "result": 44, "unit": "%"}, {"measurement": "inhibition at 4.44 µM", "setting": "[3]; Human immunodeficiency virus 1, dilution 1:8000 (A 2.5 μM; B 4.44 μM), TNF-α 20 U/ml, read-out: percent inhibition of the reverse transcriptase activity", "result": 26.4, "unit": "%"}, {"measurement": "inhibition at 2.22 µM", "setting": "[3]; Human immunodeficiency virus 1, dilution 1:16,000 (A 1.25 μM; B 2.22 μM), TNF-α 20 U/ml, read-out: percent inhibition of the reverse transcriptase activity", "result": 18.2, "unit": "%"}, {"measurement": "inhibition at 1.11 µM", "setting": "[3]; Human immunodeficiency virus 1, dilution 1:32,000 (A 0.62 μM; B 1.11 μM), TNF-α 20 U/ml, read-out: percent inhibition of the reverse transcriptase activity", "result": 19.6, "unit": "%"}, {"measurement": "inhibition at 0.55 µM", "setting": "[3]; Human immunodeficiency virus 1, dilution 1:64,000 (A 0.31 μM; B 0.55 μM), TNF-α 20 U/ml, read-out: percent inhibition of the reverse transcriptase activity", "result": 0.68, "unit": "%"}, {"measurement": "inhibition at 0.28 µM", "setting": "[3]; Human immunodeficiency virus 1, dilution 1:128,000 (A 0.16 μM; B 0.28 μM), TNF-α 20 U/ml, read-out: percent inhibition of the reverse transcriptase activity", "result": 3.67, "unit": "%"}, {"measurement": "inhibition at 0.14 µM", "setting": "[3]; Human immunodeficiency virus 1, dilution 1:256,000 (A 78.0 nM; B 0.14 μM), TNF-α 20 U/ml, read-out: percent inhibition of the reverse transcriptase activity", "result": 11.5, "unit": "%"}, {"measurement": "inhibition at 0.07 µM", "setting": "[3]; Human immunodeficiency virus 1, dilution 1:512,000 (A 39.0 nM; B 70.0 nM), TNF-α 20 U/ml, read-out: percent inhibition of the reverse transcriptase activity", "result": 1.55, "unit": "%"}, {"measurement": "anti-induction activity in the OM-10.1 cell system", "setting": "[3]; TNF-α induced", "result": "appeared to have anti-induction activity"}, {"measurement": "inhibition of HIV-1 activation", "setting": "[3]; concentrations between 10 and 1 μM", "result": "effective at substantially inhibiting HIV-1 activation"}, {"measurement": "mean reverse transcriptase cpm values", "setting": "[3]; dilution 1:10 6 (A 19.5 nM; B 35.0 nM), TNF-α 20 U/ml", "result": "30,025 cpm"}, {"measurement": "stimulation index (SI) value of the reverse transcriptase activity", "setting": "[3]; dilution 1:10 6 (A 19.5 nM; B 35.0 nM)", "result": 8.28}, {"measurement": "mean reverse transcriptase cpm values", "setting": "[3]; dilution 1:2000 (A 10.0 μM; B 17.75 μM), TNF-α 20 U/ml", "result": "7,725 cpm"}, {"measurement": "stimulation index (SI) value of the reverse transcriptase activity", "setting": "[3]; dilution 1:2000 (A 10.0 μM; B 17.75 μM)", "result": 2.13}, {"measurement": "mean reverse transcriptase cpm values", "setting": "[3]; dilution 1:4000 (A 5.0 μM; B 8.88 μM), TNF-α 20 U/ml", "result": "15,984 cpm"}, {"measurement": "stimulation index (SI) value of the reverse transcriptase activity", "setting": "[3]; dilution 1:4000 (A 5.0 μM; B 8.88 μM)", "result": 4.41}, {"measurement": "mean reverse transcriptase cpm values", "setting": "[3]; dilution 1:8000 (A […]; B 4.44 μM), TNF-α 20 U/ml", "result": "21,009 cpm"}, {"measurement": "stimulation index (SI) value of the reverse transcriptase activity", "setting": "[3]; dilution 1:8000 (A […]; B 4.44 μM)", "result": 5.80}, {"measurement": "mean reverse transcriptase cpm values", "setting": "[3]; dilution 1:16,000 (A 1.25 μM; B 2.22 μM), TNF-α 20 U/ml", "result": "23,336 cpm"}, {"measurement": "stimulation index (SI) value of the reverse transcriptase activity", "setting": "[3]; dilution 1:16,000 (A 1.25 μM; B 2.22 μM)", "result": 6.44}, {"measurement": "mean reverse transcriptase cpm values", "setting": "[3]; dilution 1:32,000 (A 0.62 μM; B 1.11 μM), TNF-α 20 U/ml", "result": "22,931 cpm"}, {"measurement": "stimulation index (SI) value of the reverse transcriptase activity", "setting": "[3]; dilution 1:32,000 (A 0.62 μM; B 1.11 μM)", "result": 6.33}, {"measurement": "mean reverse transcriptase cpm values", "setting": "[3]; dilution 1:64,000 (A 0.31 μM; B 0.55 μM), TNF-α 20 U/ml", "result": "28,334 cpm"}, {"measurement": "stimulation index (SI) value of the reverse transcriptase activity", "setting": "[3]; dilution 1:64,000 (A 0.31 μM; B 0.55 μM)", "result": 7.82}, {"measurement": "mean reverse transcriptase cpm values", "setting": "[3]; dilution 1:128,000 (A 0.16 μM; B 0.28 μM), TNF-α 20 U/ml", "result": "27,480 cpm"}, {"measurement": "stimulation index (SI) value of the reverse transcriptase activity", "setting": "[3]; dilution 1:128,000 (A 0.16 μM; B 0.28 μM)", "result": 7.58}, {"measurement": "mean reverse transcriptase cpm values", "setting": "[3]; dilution 1:256,000 (A 78.0 nM; B 0.14 μM), TNF-α 20 U/ml", "result": "25,257 cpm"}, {"measurement": "stimulation index (SI) value of the reverse transcriptase activity", "setting": "[3]; dilution 1:256,000 (A 78.0 nM; B 0.14 μM)", "result": 6.97}, {"measurement": "mean reverse transcriptase cpm values", "setting": "[3]; dilution 1:512,000 (A 39.0 nM; B 70.0 nM), TNF-α 20 U/ml", "result": "28,085 cpm"}, {"measurement": "stimulation index (SI) value of the reverse transcriptase activity", "setting": "[3]; dilution 1:512,000 (A 39.0 nM; B 70.0 nM)", "result": 7.75}, {"measurement": "percent CD4-positive cells", "setting": "[4]; 0.5 μM, 24 hours", "result": 5.3, "unit": "%"}, {"measurement": "percent CD4-positive cells", "setting": "[4]; 0.5 μM, 48 hours", "result": 20.6, "unit": "%"}, {"measurement": "percent CD4-positive cells", "setting": "[4]; 0.5 μM, 72 hours", "result": 47.9, "unit": "%"}, {"measurement": "percent CD4-positive cells", "setting": "[4]; 0.5 μM, 96 hours", "result": 75.1, "unit": "%"}, {"measurement": "percent CD4-positive cells", "setting": "[4]; 0.5 μM, T-0 (after 24 hours TNF-α, before compound)", "result": 4.0, "unit": "%"}, {"measurement": "percent CD4-positive cells", "setting": "[4]; 0.5 μM, T-24 (baseline, before TNF-α and compound)", "result": 89.0, "unit": "%"}, {"measurement": "percent CD4-positive cells", "setting": "[4]; 10 μM, 24 hours", "result": 33.5, "unit": "%"}, {"measurement": "percent CD4-positive cells", "setting": "[4]; 10 μM, 48 hours", "result": 96.5, "unit": "%"}, {"measurement": "percent CD4-positive cells", "setting": "[4]; 10 μM, 72 hours", "result": 97.6, "unit": "%"}, {"measurement": "percent CD4-positive cells", "setting": "[4]; 10 μM, 96 hours", "result": 98.7, "unit": "%"}, {"measurement": "percent CD4-positive cells", "setting": "[4]; 10 μM, T-0 (after 24 hours TNF-α, before compound)", "result": 4.0, "unit": "%"}, {"measurement": "percent CD4-positive cells", "setting": "[4]; 10 μM, T-24 (baseline, before TNF-α and compound)", "result": 89.0, "unit": "%"}]}, {"molecule": "CC(=O)N(O)CCCCCNC(=O)CCC(=O)N(O)CCCCCNC(=O)CCC(=O)N(O)CCCCCN", "note": "[desferrioxamine]", "values": [{"measurement": "inhibition of the activation of HIV-1", "setting": "[1]", "result": "modest inhibitors of the activation of HIV-1"}]}, {"molecule": "B1", "values": [{"measurement": "inhibition of the activation of HIV-1", "setting": "[1]", "result": "modest inhibitors of the activation of HIV-1"}]}]}
